Experimental data: patent US7915267B2, “Heterocyclic amide compound and use thereof” (Takeda Pharmaceutical Company Limited, priority 2005, dated 2011)

Target: T1, MMP-13 (Homo sapiens, UniProt P45452)
T1 construct: purchased GenzymeTechne
Assay: MMP-13 inhibitory activity (fluorogenic substrate Cy3-PLGLK(Cy5Q)AR-NH2 enzyme assay)
Type: biochemical
Details: compound 1 μM; 37° C., 40 min; APMA-activated MMP-13 precursor; read-out: MMP-13 inhibitory rate (%) at 1 μM
Protocol: To 10 μg of MMP-13 precursor (GenzymeTechne) was added 1 ml of assay buffer (50 mM Tris-HCl (pH 7.5), 10 mM CaCl2, 150 mM NaCl, 0.05% Brij-35), and 4-aminophenylmercuric acid (Sigma) was added to the final concentration of 1 mM. The MMP-13 precursor was activated by incubating at 37° C. for 2 hr.
In a 96 well black plate (Corning), to 6.3 ng/ml of MMP-13 solution (49 μl) diluted with assay buffer was added the test compound (1 μl) diluted with dimethyl sulfoxide (DMSO) and 620 nM Cy3-PLGLK(Cy5Q)AR-NH2 (50 μl, synthesized by Amersham Biosciences) in assay buffer was added to start the enzyme reaction. After incubation at 37° C. for 40 min, 500 mM EDTA solution (6 μl) was added to stop the reaction. For measurement, Farcyte (Amersham Biosciences) was used to measure at excitation wavelength 535 nm and measurement wavelength 595 nm.
T: value of well with addition of DMSO instead of test compound
C: value of well with addition of DMSO instead of test compound and addition of EDTA solution before addition of substrate solution
X: value of well with addition of test compound

Row | Structure (SMILES) | inhibition at 1 µM
1 | O=C(NCc1cccc(OCCSc2nc[nH]n2)c1)c1nc2sccc2c(=O)[nH]1 [Example 11, 4-oxo-N-[(3-{[2-(1H-1,2,4-triazol-3-ylthio)ethyl]oxy}phenyl)methyl]-3,4-dihydrothieno[2,3-d]pyrimidine-2-carboxamide] | 97%
2 | O=C(NCc1cccc(OCCOc2nc[nH]n2)c1)c1nc2scc(-c3ccco3)c2c(=O)[nH]1 [Example 28, 5-furan-2-yl-4-oxo-N-[(3-{[2-(1H-1,2,4-triazol-3-yloxy)ethyl]oxy}phenyl)methyl]-3,4-dihydrothieno[2,3-d]pyrimidine-2-carboxamide] | 96%
3 | Cc1ccc2nc(C(=O)NCc3cccc(OCCSc4nc[nH]n4)c3)[nH]c(=O)c2c1 [Example 6, 6-methyl-4-oxo-N-[(3-{[2-(1H-1,2,4-triazol-3-ylthio)ethyl]oxy}phenyl)methyl]-3,4-dihydroquinazoline-2-carboxamide] | 97%
4 | N#Cc1ccc2nc(C(=O)NCc3cccc(OCCSc4nc[nH]n4)c3)[nH]c(=O)c2c1 [Example 2, 6-cyano-4-oxo-N-[(3-{[2-(1H-1,2,4-triazol-3-ylthio)ethyl]oxy}phenyl)methyl]-3,4-dihydroquinazoline-2-carboxamide] | 97%
5 | N#Cc1ccc2nc(C(=O)NCc3ccnc(OCCSc4nc[nH]n4)c3)[nH]c(=O)c2c1 [Example 20, 6-cyano-4-oxo-N-[(2-{[2-(1H-1,2,4-triazol-3-ylthio)ethyl]oxy}pyridin-4-yl)methyl]-3,4-dihydroquinazoline-2-carboxamide] | 89%
6 | N#Cc1ccc2nc(C(=O)NCc3cccc(OCCCCSc4nc[nH]n4)c3)[nH]c(=O)c2c1 [Example 17, 6-cyano-4-oxo-N-[(3-{[4-(1H-1,2,4-triazol-3-ylthio)butyl]oxy}phenyl)methyl]-3,4-dihydroquinazoline-2-carboxamide] | 97%
7 | Cc1cccc2nc(C(=O)NCc3cccc(OCCSc4nc[nH]n4)c3)[nH]c(=O)c12 [Example 9, 5-methyl-4-oxo-N-[(3-{[2-(1H-1,2,4-triazol-3-ylthio)ethyl]oxy}phenyl)methyl]-3,4-dihydroquinazoline-2-carboxamide] | 98%

Now from value to molecule:

Row | inhibition at 1 µM | Structure (SMILES)
8 | 98% | O=C(NCc1cccc(OCCOc2nc[nH]n2)c1)c1nc2ccc(F)c(F)c2c(=O)[nH]1 [Example 44, 5,6-difluoro-4-oxo-N-[(3-{[2-(1H-1,2,4-triazol-3-yloxy)ethyl]oxy}phenyl)methyl]-3,4-dihydroquinazoline-2-carboxamide]
9 | 100% | O=C(O)c1ccc(CCOc2c(F)ccc3nc(C(=O)NCc4cccc(OCCOc5nc[nH]n5)c4)[nH]c(=O)c23)cc1 [Example 46, 4-(2-{[6-fluoro-4-oxo-2-({[(3-{[2-(1H-1,2,4-triazol-3-yloxy)ethyl]oxy}phenyl)methyl]amino}carbonyl)-3,4-dihydroquinazolin-5-yl]oxy}ethyl)benzoic acid]
10 | 90% | N#Cc1ccc2nc(C(=O)NCc3cccc(CNC(=O)Cc4nc[nH]n4)c3)[nH]c(=O)c2c1 [Example 34, 6-cyano-4-oxo-N-[(3-{[(1H-1,2,4-triazol-3-ylacetyl)amino]methyl}phenyl)methyl]-3,4-dihydroquinazoline-2-carboxamide]
11 | 96% | CCOC(=O)c1ccc(COCc2csc3nc(C(=O)NCc4ccnc(OCCCc5nc[nH]n5)c4)[nH]c(=O)c23)cc1 [Example 41, ethyl 4-[({[4-oxo-2-({[(2-{[3-(1H-1,2,4-triazol-3-yl)propyl]oxy}pyridin-4-yl)methyl]amino}carbonyl)-3,4-dihydrothieno[2,3-d]pyrimidin-5-yl]methyl}oxy)methyl]benzoate]
12 | 96% | O=C(NCc1cccc(COCc2nc[nH]n2)c1)c1nc2ccccc2c(=O)[nH]1 [Example 30, 4-oxo-N-[(3-{[(1H-1,2,4-triazol-3-ylmethyl)oxy]methyl}phenyl)methyl]-3,4-dihydroquinazoline-2-carboxamide]
